In general, MIC refers to the least concentration at which growth counts as inhibited.

Common to all, as to type: functional
Test [1] relates to Streptococcus pneumoniae. As to the kind of experiment: Antibacterial activity against erythromycin-susceptible Streptococcus pneumoniae ATCC 49619 by broth microdilution method. (In general: Dilution methods test growth across graded concentrations, often in twofold steps.)
Test [2] concerns Streptococcus pneumoniae. Description: Antibacterial activity against erythromycin-resistant Streptococcus pneumoniae AB1-1 expressing erm and mef gene by broth microdilution method.
For test [3], the system named is Streptococcus pneumoniae. Description: Antibacterial activity against erythromycin-resistant Streptococcus pneumoniae B1 expressing erm gene by broth microdilution method.
The subject of test [4] is Streptococcus pneumoniae. As to the kind of experiment: Antibacterial activity against erythromycin-resistant Streptococcus pneumoniae A22072 expressing mef gene by broth microdilution method.

≈ marks a conversion by molar mass, not a printed value.

Consider `CC[C@H]1OC(=O)[C@H](C)[C@@H](O[C@H]2C[C@@](C)(OC)[C@@H](OC(=O)NCc3ccccc3)[C@H](C)O2)[C@H](C)[C@@H](O[C@@H]2O[C@H](C)C[C@H](N(C)C)[C@H]2O)[C@](C)(OC)C[C@@H](C)C(=O)[C@H](C)[C@@H](O)[C@]1(C)O`, for which the MIC in the test on Streptococcus pneumoniae [1] came to 0.25 µg/mL (≈ 0.284 µM); in the test on Streptococcus pneumoniae [2], 8 µg/mL (≈ 9.08 µM); against Streptococcus pneumoniae [3] it was 4 µg/mL (≈ 4.54 µM); with Streptococcus pneumoniae [4], 0.25 µg/mL (≈ 0.284 µM).

As to `CC[C@H]1OC(=O)[C@H](C)[C@@H](O[C@H]2C[C@@](C)(OC)[C@@H](OC(=O)NCc3ccc(F)cc3)[C@H](C)O2)[C@H](C)[C@@H](O[C@@H]2O[C@H](C)C[C@H](N(C)C)[C@H]2O)[C@](C)(OC)C[C@@H](C)C(=O)[C@H](C)[C@@H](O)[C@]1(C)O`, the MIC in the test on Streptococcus pneumoniae [1] stood at 0.06 µg/mL (≈ 0.0667 µM); in the test with Streptococcus pneumoniae [2], 8 µg/mL (≈ 8.9 µM); against Streptococcus pneumoniae [3], 4 µg/mL (≈ 4.45 µM); against Streptococcus pneumoniae [4], 0.5 µg/mL (≈ 0.556 µM).

As to `CC[C@H]1OC(=O)[C@H](C)[C@@H](O[C@H]2C[C@@](C)(OC)[C@@H](OC(=O)NCc3ccc(OC)cc3)[C@H](C)O2)[C@H](C)[C@@H](O[C@@H]2O[C@H](C)C[C@H](N(C)C)[C@H]2O)[C@](C)(OC)C[C@@H](C)C(=O)[C@H](C)[C@@H](O)[C@]1(C)O`, the MIC with Streptococcus pneumoniae [1] is 0.03 µg/mL (≈ 0.0329 µM); against Streptococcus pneumoniae [2] it was 32 µg/mL (≈ 35.1 µM); in the test on Streptococcus pneumoniae [3], 16 µg/mL (≈ 17.6 µM); with Streptococcus pneumoniae [4] it was 0.25 µg/mL (≈ 0.274 µM).

`CC[C@H]1OC(=O)[C@H](C)[C@@H](O[C@H]2C[C@@](C)(OC)[C@@H](OC(=O)NCCc3ccc(O)cc3)[C@H](C)O2)[C@H](C)[C@@H](O[C@@H]2O[C@H](C)C[C@H](N(C)C)[C@H]2O)[C@](C)(OC)C[C@@H](C)C(=O)[C@H](C)[C@@H](O)[C@]1(C)O`: the MIC with Streptococcus pneumoniae [1] stood at 0.03 µg/mL (≈ 0.0329 µM); against Streptococcus pneumoniae [2], 64 µg/mL (≈ 70.2 µM); against Streptococcus pneumoniae [3] it was 16 µg/mL (≈ 17.6 µM); in the test on Streptococcus pneumoniae [4], 1 µg/mL (≈ 1.1 µM).

In the case of `CC[C@H]1OC(=O)[C@H](C)[C@@H](O[C@H]2C[C@@](C)(OC)[C@@H](OC(=O)NCCc3ccccc3Cl)[C@H](C)O2)[C@H](C)[C@@H](O[C@@H]2O[C@H](C)C[C@H](N(C)C)[C@H]2O)[C@](C)(OC)C[C@@H](C)C(=O)[C@H](C)[C@@H](O)[C@]1(C)O`, the MIC stood at 0.12 µg/mL (≈ 0.129 µM) against Streptococcus pneumoniae [1], 128 µg/mL (≈ 138 µM) in the test on Streptococcus pneumoniae [2], 128 µg/mL (≈ 138 µM) in the test with Streptococcus pneumoniae [3] and 4 µg/mL (≈ 4.3 µM) with Streptococcus pneumoniae [4].

Consider `CC[C@H]1OC(=O)[C@H](C)[C@@H](O[C@H]2C[C@@](C)(OC)[C@@H](OC(=O)NCCc3ccccc3)[C@H](C)O2)[C@H](C)[C@@H](O[C@@H]2O[C@H](C)C[C@H](N(C)C)[C@H]2O)[C@](C)(OC)C[C@@H](C)C(=O)[C@H](C)[C@@H](O)[C@]1(C)O`, for which the MIC in the test on Streptococcus pneumoniae [1] is 0.06 µg/mL (≈ 0.067 µM); against Streptococcus pneumoniae [2] it was 32 µg/mL (≈ 35.7 µM); in the test with Streptococcus pneumoniae [3], 16 µg/mL (≈ 17.9 µM); with Streptococcus pneumoniae [4], 0.5 µg/mL (≈ 0.559 µM).

Consider `CC[C@H]1OC(=O)[C@H](C)[C@@H](O[C@H]2C[C@@](C)(OC)[C@@H](OC(=O)NCCc3ccc4c(c3)OCO4)[C@H](C)O2)[C@H](C)[C@@H](O[C@@H]2O[C@H](C)C[C@H](N(C)C)[C@H]2O)[C@](C)(OC)C[C@@H](C)C(=O)[C@H](C)[C@@H](O)[C@]1(C)O`, for which the MIC with Streptococcus pneumoniae [1] was found to be 0.06 µg/mL (≈ 0.0639 µM); in the test on Streptococcus pneumoniae [2] it was 64 µg/mL (≈ 68.1 µM); in the test on Streptococcus pneumoniae [3], 32 µg/mL (≈ 34.1 µM); in the test with Streptococcus pneumoniae [4], 0.25 µg/mL (≈ 0.266 µM).

Regarding `CC[C@H]1OC(=O)[C@H](C)[C@@H](O[C@H]2C[C@@](C)(OC)[C@@H](OC(=O)NCCCC(=O)NCc3ccccc3)[C@H](C)O2)[C@H](C)[C@@H](O[C@@H]2O[C@H](C)C[C@H](N(C)C)[C@H]2O)[C@](C)(OC)C[C@@H](C)C(=O)[C@H](C)[C@@H](O)[C@]1(C)O`, the MIC in the test on Streptococcus pneumoniae [1] amounted to 0.03 µg/mL (≈ 0.031 µM); with Streptococcus pneumoniae [2], 0.25 µg/mL (≈ 0.259 µM); in the test with Streptococcus pneumoniae [3], 2 µg/mL (≈ 2.07 µM); in the test on Streptococcus pneumoniae [4], 0.5 µg/mL (≈ 0.517 µM).

In the case of `CC[C@H]1OC(=O)[C@H](C)[C@@H](O[C@H]2C[C@@](C)(OC)[C@@H](OC(=O)NCCCC(=O)NCc3ccc(F)cc3)[C@H](C)O2)[C@H](C)[C@@H](O[C@@H]2O[C@H](C)C[C@H](N(C)C)[C@H]2O)[C@](C)(OC)C[C@@H](C)C(=O)[C@H](C)[C@@H](O)[C@]1(C)O`, the minimal inhibitory concentration (MIC) turned out to be 0.03 µg/mL (≈ 0.0305 µM) in the test on Streptococcus pneumoniae [1], 2 µg/mL (≈ 2.03 µM) in the test with Streptococcus pneumoniae [2], 1 µg/mL (≈ 1.02 µM) against Streptococcus pneumoniae [3] and 0.25 µg/mL (≈ 0.254 µM) against Streptococcus pneumoniae [4].

Take `CC[C@H]1OC(=O)[C@H](C)[C@@H](O[C@H]2C[C@@](C)(OC)[C@@H](OC(=O)NCCCC(=O)NCc3ccc(OC)cc3)[C@H](C)O2)[C@H](C)[C@@H](O[C@@H]2O[C@H](C)C[C@H](N(C)C)[C@H]2O)[C@](C)(OC)C[C@@H](C)C(=O)[C@H](C)[C@@H](O)[C@]1(C)O`: the MIC turned out to be 0.03 µg/mL (≈ 0.0301 µM) with Streptococcus pneumoniae [1], 1 µg/mL (≈ 1 µM) in the test with Streptococcus pneumoniae [2], 0.06 µg/mL (≈ 0.0602 µM) against Streptococcus pneumoniae [3] and 0.25 µg/mL (≈ 0.251 µM) in the test on Streptococcus pneumoniae [4].

As to `CC[C@H]1OC(=O)[C@H](C)[C@@H](O[C@H]2C[C@@](C)(OC)[C@@H](OC(=O)NCCCC(=O)NCCc3ccc(O)cc3)[C@H](C)O2)[C@H](C)[C@@H](O[C@@H]2O[C@H](C)C[C@H](N(C)C)[C@H]2O)[C@](C)(OC)C[C@@H](C)C(=O)[C@H](C)[C@@H](O)[C@]1(C)O`, the MIC against Streptococcus pneumoniae [1] was 0.03 µg/mL (≈ 0.0301 µM); against Streptococcus pneumoniae [2] it was 1 µg/mL (≈ 1 µM); with Streptococcus pneumoniae [3], 0.25 µg/mL (≈ 0.251 µM); with Streptococcus pneumoniae [4], 0.5 µg/mL (≈ 0.502 µM).

For the molecule `CC[C@H]1OC(=O)[C@H](C)[C@@H](O[C@H]2C[C@@](C)(OC)[C@@H](OC(=O)NCCCC(=O)NCCc3ccccc3Cl)[C@H](C)O2)[C@H](C)[C@@H](O[C@@H]2O[C@H](C)C[C@H](N(C)C)[C@H]2O)[C@](C)(OC)C[C@@H](C)C(=O)[C@H](C)[C@@H](O)[C@]1(C)O`, the minimum inhibitory concentration (MIC) against Streptococcus pneumoniae [1] came to 0.03 µg/mL (≈ 0.0296 µM); in the test with Streptococcus pneumoniae [2], 32 µg/mL (≈ 31.5 µM); in the test on Streptococcus pneumoniae [3], 32 µg/mL (≈ 31.5 µM); in the test with Streptococcus pneumoniae [4], 1 µg/mL (≈ 0.986 µM).

With `CC[C@H]1OC(=O)[C@H](C)[C@@H](O[C@H]2C[C@@](C)(OC)[C@@H](O)[C@H](C)O2)[C@H](C)[C@@H](O[C@@H]2O[C@H](C)C[C@H](N(C)C)[C@H]2O)[C@](C)(O)C[C@@H](C)CN(C)[C@H](C)[C@@H](O)[C@]1(C)O` [AZITHROMYCIN], the MIC against Streptococcus pneumoniae [1] was determined as 0.03 µg/mL (≈ 0.0401 µM); in the test on Streptococcus pneumoniae [2] it was 256 µg/mL (≈ 342 µM); against Streptococcus pneumoniae [3] it was 128 µg/mL (≈ 171 µM); against Streptococcus pneumoniae [4], 4 µg/mL (≈ 5.34 µM).

As for `CC[C@H]1OC(=O)[C@H](C)[C@@H](O[C@H]2C[C@@](C)(OC)[C@@H](O)[C@H](C)O2)[C@H](C)[C@@H](O[C@@H]2O[C@H](C)C[C@H](N(C)C)[C@H]2O)[C@](C)(OC)C[C@@H](C)C(=O)[C@H](C)[C@@H](O)[C@]1(C)O` [CLARITHROMYCIN], the MIC in the test on Streptococcus pneumoniae [1] stood at 0.03 µg/mL (≈ 0.0401 µM); with Streptococcus pneumoniae [2] it was 128 µg/mL (≈ 171 µM); against Streptococcus pneumoniae [3] it was 64 µg/mL (≈ 85.6 µM); with Streptococcus pneumoniae [4] it was 4 µg/mL (≈ 5.35 µM).

Turning to `CC[C@H]1OC(=O)[C@H](C)[C@@H](O[C@H]2C[C@@](C)(OC)[C@@H](O)[C@H](C)O2)[C@H](C)[C@@H](O[C@@H]2O[C@H](C)C[C@H](N(C)C)[C@H]2O)[C@](C)(O)C[C@@H](C)C(=O)[C@H](C)[C@@H](O)[C@]1(C)O` [ERYTHROMYCIN], the MIC against Streptococcus pneumoniae [1] worked out at 0.03 µg/mL (≈ 0.0409 µM); with Streptococcus pneumoniae [2], 256 µg/mL (≈ 349 µM); against Streptococcus pneumoniae [3] it was 128 µg/mL (≈ 174 µM); against Streptococcus pneumoniae [4], 8 µg/mL (≈ 10.9 µM).

Values taken from ChEMBL document CHEMBL1155521, “Synthesis and antibacterial activity of novel 4''-O-arylalkylcarbamoyl and 4''-O-((arylalkylamino)-4-oxo-butyl)carbamoyl clarithromycin derivatives” (2010).
